In article PMC4624780 (PLoS ONE, 2015):
Square brackets hold non-standard residues; d marks the D form. Peptide text beside a SMILES is read from it. Ahx = NCCCCCC(=O)O

Columns and labels:
[1] = tested on: 3A N-terminal (1–52) peptide dimer; format: biochemical, foot-and-mouth disease virus (FMDV)

Molecule | inhibition of viral production (FMDV C-S8c1) | reduction of viral yield at concentrations lower than 100 μM (FMDV C-S8c1) | inhibition of viral production at 100 μM (FMDV C-S8c1; 24 h, 100 μM) | intensity of the N-ter dimer band, immunoblotting with polyclonal antibody 479 [1]
CC[C@H](C)[C@H](NC(=O)[C@H](CC(C)C)NC(=O)[C@@H]1CCCN1C(=O)[C@H](CCCNC(=N)N)NC(=O)[C@H](CC(C)C)NC(=O)[C@H](CCC(=O)O)NC(=O)CCCCCNC(=O)[C@H](CCCNC(=N)N)NC(=O)[C@H](CCCNC(=N)N)NC(=O)[C@H](CCCNC(=N)N)NC(=O)[C@H](CCCNC(=N)N)NC(=O)[C@H](CCCNC(=N)N)NC(=O)[C@H](CCCNC(=N)N)NC(=O)[C@@H](N)CCCNC(=N)N)C(=O)N[C@@H](CCC(N)=O)C(=O)N[C@@H](CCC(N)=O)C(N)=O [Peptide R7-α2] (H-RRRRRRR[Ahx]ELRPLIQQ-NH2; N-terminus assumed) | dose dependent inhibition | significant reductions | ca. 50% | 
ELRPLIQQ [α2] |  |  |  | impaired in vitro dimer formation
FFEGMVHDS [α1] |  |  |  | impaired in vitro dimer formation
RRRRRRRXFFEGMVHDS [Peptide R7-α1] | dose dependent inhibition |  |  | 
